Results published in patent US12679839B2, “Cyclin-dependent kinase 7 (CDK7) non-covalent inhibitors” (JANSSEN PHARMACEUTICA NV, priority 2020, dated 2026).

Assays:
[1] = target: T1, CDK7/Cyclin H/MAT-1 complex (Homo sapiens, UniProt P50613); assay: Absorbance kinetic assay (20 nM CDK7/Cyclin H/MAT-1 complex); assay type: biochemical; conditions: for IC50: read-out: CDK7 (20 nM) pIC50 (converted)
T1 construct: Human CDK7 (amino acids 1-346); His6 (N); TEV protease cleavage site (N); made in house; host or cells: baculovirus-SF9 insect cells
T1 sequence (P50613 whole entry, the tested form may be a part): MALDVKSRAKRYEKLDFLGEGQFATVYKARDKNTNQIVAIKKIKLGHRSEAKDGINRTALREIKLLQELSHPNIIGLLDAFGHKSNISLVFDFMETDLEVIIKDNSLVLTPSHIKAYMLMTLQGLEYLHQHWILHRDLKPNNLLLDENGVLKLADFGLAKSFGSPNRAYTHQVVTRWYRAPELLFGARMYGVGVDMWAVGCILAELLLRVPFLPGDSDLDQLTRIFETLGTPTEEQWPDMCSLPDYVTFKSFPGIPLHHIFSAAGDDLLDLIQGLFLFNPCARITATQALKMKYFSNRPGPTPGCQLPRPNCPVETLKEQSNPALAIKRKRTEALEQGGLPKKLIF
T1 sequence (P51946 whole entry partner, the tested form may be a part): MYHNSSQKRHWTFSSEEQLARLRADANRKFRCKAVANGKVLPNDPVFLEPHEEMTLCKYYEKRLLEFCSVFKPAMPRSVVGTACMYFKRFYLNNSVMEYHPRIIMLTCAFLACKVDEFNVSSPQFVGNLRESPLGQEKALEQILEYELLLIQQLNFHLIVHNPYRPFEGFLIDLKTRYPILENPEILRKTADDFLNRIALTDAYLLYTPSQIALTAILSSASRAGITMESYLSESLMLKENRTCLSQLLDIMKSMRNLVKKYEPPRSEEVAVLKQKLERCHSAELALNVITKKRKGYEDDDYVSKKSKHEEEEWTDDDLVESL
T1 sequence (P51948 whole entry partner, the tested form may be a part): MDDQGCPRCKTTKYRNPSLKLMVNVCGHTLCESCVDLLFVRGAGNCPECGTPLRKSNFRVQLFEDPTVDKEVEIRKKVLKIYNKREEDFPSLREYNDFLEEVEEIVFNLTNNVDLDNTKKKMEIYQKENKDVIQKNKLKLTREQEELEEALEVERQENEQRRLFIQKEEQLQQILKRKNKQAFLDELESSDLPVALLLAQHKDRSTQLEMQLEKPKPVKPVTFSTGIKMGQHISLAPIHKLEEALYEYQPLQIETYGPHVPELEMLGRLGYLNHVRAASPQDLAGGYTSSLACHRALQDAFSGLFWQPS
Procedure: Human CDK7 (amino acids 1-346) containing an N-terminal His6-tag followed by a tobacco etch virus (TEV) protease cleavage site, human MAT1 (amino acids 1-309) and human cyclin H (amino acids 1-323) were co-expressed in the baculovirus-SF9 insect cell expression system to generate a trimeric complex. Cell pellets were collected 72 h post-infection and were resuspended by Dounce homogenization in 20 mM Hepes-NaOH (pH 8.0), 300 mM NaCl, 10% glycerol, 2 mM dithiothreitol DTT), and 20 mM Imidazole supplemented with cOmplete™ Protease Inhibitor Cocktail (Roche) and 25 U/mL Benzonase® Nuclease HC according to the manufacturer's instructions. Cells were lysed by passing through a Microfluidics M110Y Microfluidizer 3 times at 600 kPa followed by centrifugation at 38,000×g at 4° C. for 1 hour. The supernatant was loaded onto a pre-equilibrated HisTrap HP column and eluted in 20 mM Hepes-NaOH (pH 8.0), 50 mM NaCl, 10% glycerol, 2 mM DTT, and 400 mM Imidazole. The eluate was further purified by gel filtration on a Superdex S200 16/60 column and eluted with 20 mM Hepes-NaOH (pH 7.5), 50 mM NaCl, 10% Glycerol, 2 mM DTT. Fractions containing a trimeric complex of CDK7, cyclin H, and MAT1 in a 1:1:1 ratio were pooled and concentrated to 3 mg/mL in a 10 kDa MWCO concentrator, and diluted to a final concentration of 1.6 mg/mL in 11.1 mM Hepes-NaOH (pH 8.0), 27.8 mM NaCl, 1.1 mM DTT and 50% glycerol. […]
Absorbance Kinetic Assay (20 nM CDK7/Cyclin H/MAT-1 Complex)
CDK7 complex catalyzes the ATP-dependent phosphorylation of a peptide substrate CDK7/9-tide that is derived from RNA Pol II to produce phosphorylated peptide and ADP. The kinase reaction product ADP was converted to lactate and NAD^+ in the presence of phosphoenol pyruvate (PEP), NADH and coupling enzymes lactate dehydrogenase (LDH) and pyruvate kinase (PK). CDK7 complex catalytic activity was measured by following the absorbance intensity continuously at 340 nm that corresponds with the depletion of NADH.
Absorbance at 340 nm was followed kinetically at an interval of 2 minutes for 8 hours.
The assay was carried out with 100 μl reaction volume per well in a 384-well plate that was pre-spotted nanoliter volume of compounds by LabCyte Echo 555. Compound dilution plates were made by 2-fold (could vary upon necessity) dilution in DMSO for 11 concentrations plus a DMSO control of uninhibited reaction. 2× substrate and coupling reagent mixture was added to the assay plate followed by an addition of an equal volume of 40 nM CDK7/Cyclin H/MAT-1 complex. After mixing, assay plates were spun at 2000 rpm for 3 minutes and then transferred to the plate reader for data collection.
For reversible inhibitors, the absorbance reaction progress curves were linear. The steady-state rate was derived from the slope of the linear curves. The following equation is applied to determine percent inhibition.
[formula] • νo=max rate (uninhibited rate) • νi=inhibited rate
The IC50 value is calculated by the following equation:
(§1) [formula] where νo is the rate in the absence of inhibitor, νmin is the rate at highest inhibitor concentration, and h is the Hill coefficient. Flint Assay (5 nM CDK7/Cyclin H/MAT-1 Complex)

[2] = target: T1, CDK7/Cyclin H/MAT-1 complex; assay: Flint assay, end-point fluorescence (5 nM CDK7/Cyclin H/MAT-1 complex); assay type: biochemical; conditions: read-out: CDK7 (5 nM) pIC50 (converted)
Procedure: Human CDK7 (amino acids 1-346) containing an N-terminal His6-tag followed by a tobacco etch virus (TEV) protease cleavage site, human MAT1 (amino acids 1-309) and human cyclin H (amino acids 1-323) were co-expressed in the baculovirus-SF9 insect cell expression system to generate a trimeric complex. Cell pellets were collected 72 h post-infection and were resuspended by Dounce homogenization in 20 mM Hepes-NaOH (pH 8.0), 300 mM NaCl, 10% glycerol, 2 mM dithiothreitol DTT), and 20 mM Imidazole supplemented with cOmplete™ Protease Inhibitor Cocktail (Roche) and 25 U/mL Benzonase® Nuclease HC according to the manufacturer's instructions. Cells were lysed by passing through a Microfluidics M110Y Microfluidizer 3 times at 600 kPa followed by centrifugation at 38,000×g at 4° C. for 1 hour. The supernatant was loaded onto a pre-equilibrated HisTrap HP column and eluted in 20 mM Hepes-NaOH (pH 8.0), 50 mM NaCl, 10% glycerol, 2 mM DTT, and 400 mM Imidazole. The eluate was further purified by gel filtration on a Superdex S200 16/60 column and eluted with 20 mM Hepes-NaOH (pH 7.5), 50 mM NaCl, 10% Glycerol, 2 mM DTT. Fractions containing a trimeric complex of CDK7, cyclin H, and MAT1 in a 1:1:1 ratio were pooled and concentrated to 3 mg/mL in a 10 kDa MWCO concentrator, and diluted to a final concentration of 1.6 mg/mL in 11.1 mM Hepes-NaOH (pH 8.0), 27.8 mM NaCl, 1.1 mM DTT and 50% glycerol.
Compounds with potencies approaching the limit of detection of the assay (IC50≤10 nM) were further assessed in a more sensitive fluorescence end-point assay.
as §1
The continuous absorbance assay was converted to an end-point fluorescence assay following the NADH fluorescence signal decrease at the excitation and emission wavelengths of 340 nm and 440 nm, respectively.
Under the same concentrations of substrates and coupling reagents used in the absorbance assay, the fluorescence assay was performed at a reduced concentration of the CDK7/Cyclin H/MAT-1 complex of 5 nM (final concentration) with a reaction time of 24 hours. The percent of inhibition was calculated by the following equation. Percent of inhibition=(Sample−NC)/(PC−NC)*100 where NC is the mean if negative control (reaction without inhibitor), and PC is the mean of positive control (reaction with complete inhibition).
Dosing curves were fitted using the following equation to obtain IC50: Y=Bottom+(Top−Bottom)/(1+10^((log IC50−X)*Hill slope)) where X=log10 of the compound concentration; top and bottom can be defined by PC and NC respectively. Imaging-Based Cellular RNA PolII Ser5 Phosphorylation Assay

[3] = system: RNA polymerase II Serine 5 phosphorylation (Rpb1 CTD), downstream substrate of CDK7; assay: Imaging-based cellular RNA PolII Ser5 phosphorylation assay in A549 cells; assay type: cell-based, human; conditions: Homo sapiens, A549, 3 h, challenged with compound for 3 hours, read-out: pRNA polII Ser5 (A549) pIC50 (converted)
Summary of the method: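 A549 cells seeded 20 h in DMEM with 1% FBS, then exposed to compound for 3 h at 37 °C; fixed, methanol-permeabilized and immunostained for phospho-Rpb1 CTD Ser5, read by automated imaging. Signal normalized to DMSO (high) and 10 μM LDC4297 (low) controls; IC50 from four-parameter fit of % control vs concentration.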

Row | SMILES | IC50 [1] [µM] | IC50 [2] [µM] | IC50 [3] [µM] | CDK7 (20 nM) pIC50 [1]
1 | C[C@@H]1Cc2cnc(NCc3ccn(C)n3)nc2CN1C(=O)[C@H]1CCN(C)C[C@@H]1c1ccccc1F (relative stereo) [Compound 131] | 0.0617 | 0.00912 |  | 
2 | C[C@@H]1Cc2cnc(N[C@H]3CCN(C)C(=O)C3)nc2CN1C(=O)[C@H]1CCN(C)C[C@@H]1c1ccccc1 (relative stereo) [Compound 5] | < 0.00977 | 0.00214 |  | 
3 | C[C@@H]1c2nc(NC3CCOCC3)ncc2CCN1C(=O)[C@H]1CCN(C)C[C@@H]1c1ccccc1 (relative stereo) [Compound 183] | > 10 |  | > 10 | 
4 | C[C@@H]1Cc2cnc(NC3CCOCC3)nc2CN1C(=O)N1CCNC[C@@H]1c1ccccc1 [Compound 208] |  |  | 1.23 | 7.66
5 | C[C@@H]1Cc2cnc(NC3CCOCC3)nc2CN1C(=O)[C@H]1CCN(C)C[C@@H]1C1CC1 (racemic) [Compound 111] | 0.214 |  | 8.32 | 
6 | C[C@@H]1Cc2cnc(N[C@H](C)c3ccccn3)nc2CN1C(=O)[C@H]1CCN(C)C[C@@H]1c1ccccc1 [Compound 21] |  |  | 0.302 | 7.97
7 | CC(C)n1cc(CNc2ncc3c(n2)CN(C(=O)[C@H]2CCN(C)C[C@@H]2c2ccccc2)[C@H](C)C3)cn1 [Compound 30] |  |  | 3.89 | 7.03
8 | C[C@@H]1Cc2cnc(NCC(=O)N3CCCCC3)nc2CN1C(=O)[C@H]1CCN(C)C[C@@H]1c1ccccc1 [Compound 28] |  |  | > 10 | 6.59
9 | C[C@@H]1Cc2cnc(NC3CCN(C(=O)CC4CC4)CC3)nc2CN1C(=O)[C@H]1CCN(C)C[C@@H]1c1ccccc1 [Compound 31] |  |  | ~0.0692 | 7.81

Second part, the compound after the results:

Row | IC50 [1] [µM] | IC50 [2] [µM] | IC50 [3] [µM] | CDK7 (20 nM) pIC50 [1] | SMILES
10 |  | 0.00324 | 0.126 |  | [2H]C([2H])([2H])N1CC[C@H](C(=O)N2Cc3nc(NC4CCOCC4)ncc3C[C@H]2C)[C@@H](c2ccccc2)C1 (single isomer, unassigned) [Compound 156]
11 | 0.038 | 0.00794 |  |  | C[C@@H]1Cc2cnc(NCc3ccn(C)n3)nc2CN1C(=O)[C@@H]1CCN(C)C[C@H]1c1ccccc1F (relative stereo) [Compound 130]
12 |  | 0.00741 | 0.186 |  | CO[C@H]1CC[C@H](Nc2cc3c(cn2)C[C@H](C)N(C(=O)[C@H]2CCN(C)C[C@@H]2c2ccccc2)C3)CC1 (single isomer, unassigned) [Compound 172]
13 |  |  | 1.38 | 7.46 | CO[C@H]1CC[C@@H](Nc2ncc3c(n2)CN(C(=O)[C@H]2CCN(C)C[C@@H]2c2ccccc2)[C@H](C)C3)CC1 [Compound 38]
14 | 0.0355 |  | ~8.13 |  | C[C@@H]1Cc2cnc(N[C@@H]3CCN(C)C(=O)C3)nc2CN1C(=O)[C@H]1CCN(C)C[C@@H]1c1ccccc1 (relative stereo) [Compound 4]
15 |  |  | > 10 | 6.74 | C[C@@H]1Cc2cnc(NC3CCOCC3)nc2CN1C(=O)[C@H]1CCN(C2CC2)C[C@@H]1c1ccccc1 (single isomer, unassigned) [Compound 161]
16 | 0.0138 |  | 1.35 |  | CO[C@]1(C)CC[C@H](Nc2ncc3c(n2)CN(C(=O)[C@H]2CCN(C)C[C@@H]2c2ccccc2)[C@H](C)C3)CC1 [Compound 11]
17 | 0.794 |  | > 10 |  | C[C@@H]1C[C@H](C(=O)N2Cc3nc(NC4CCOCC4)ncc3C[C@H]2C)[C@@H](c2ccccc2)CN1C (relative stereo) [Compound 170a]
18 | 0.0129 |  | 1.23 |  | CO[C@H]1CC[C@H](Nc2ncc3c(n2)CN(C(=O)C2CCN(C)CC2c2ccnc(C)c2)[C@H](C)C3)CC1 (stereo partly shown) [Compound 104]
19 |  |  | 4.47 | 7.67 | Cc1cc(C2CN(C)CCC2C(=O)N2Cc3nc(NC4CCOCC4)ncc3C[C@H]2C)ccn1 (stereo partly shown) [Compound 101]
20 | 2.34 |  | 6.92 |  | Cc1cccc([C@@H]2CN(C)CC[C@H]2C(=O)N2Cc3nc(Nc4cnn(C)c4)ncc3[C@@H]3C[C@@H]32)c1 (relative stereo) [Compound 202]
